{"source": "patent US20080176952A1", "about": "“Management of Ophthalmologic Disorders, Including Macular Degeneration” (priority 2004, published 2008)", "molecules": {"B1": {"name": "mRPE65: membrane-associated, palmitoylated form of RPE65; acts as palmitoyl donor for LRAT (protein, UniProt Q16518 2-533, looked up)", "Retinoid isomerohydrolase": "SIQVEHPAGGYKKLFETVEELSSPLTAHVTGRIPLWLTGSLLRCGPGLFEVGSEPFYHLFDGQALLHKFDFKEGHVTYHRRFIRTDAYVRAMTEKRIVITEFGTCAFPDPCKNIFSRFFSYFRGVEVTDNALVNVYPVGEDYYACTETNFITKINPETLETIKQVDLCNYVSVNGATAHPHIENDGTVYNIGNCFGKNFSIAYNIVKIPPLQADKEDPISKSEIVVQFPCSDRFKPSYVHSFGLTPNYIVFVETPVKINLFKFLSSWSLWGANYMDCFESNETMGVWLHIADKKRKKYLNNKYRTSPFNLFHHINTYEDNGFLIVDLCCWKGFEFVYNYLYLANLRENWEEVKKNARKAPQPEVRRYVLPLNIDKADTGKNLVTLPNTTATAILCSDETIWLEPEVLFSGPRQAFEFPQINYQKYCGKPYTYAYGLGLNHFVPDRLCKLNVKTKETWVWQEPDSYPSEPIFVSHPDALEEDDGVVLSVVVSPGAGQKPAYLLILNAKDLSEVARAEVEINIPVTFHGLFKKS", "modifications": "palmitoylated membrane-associated form", "notes": "membrane-associated, palmitoylated form of RPE65; acts as palmitoyl donor for LRAT"}}, "key": {"sRPE65": {"biological_target": "T1, sRPE65 (Bos taurus, UniProt Q28175)", "T1 construct": "Frozen bovine eyecups devoid of retinas were purchased from W. L. Lawson Co; tissue W. L. Lawson Co; host or cells: bovine eyecups (retinal pigment epithelium)", "T1 sequence (Q28175 whole entry)": "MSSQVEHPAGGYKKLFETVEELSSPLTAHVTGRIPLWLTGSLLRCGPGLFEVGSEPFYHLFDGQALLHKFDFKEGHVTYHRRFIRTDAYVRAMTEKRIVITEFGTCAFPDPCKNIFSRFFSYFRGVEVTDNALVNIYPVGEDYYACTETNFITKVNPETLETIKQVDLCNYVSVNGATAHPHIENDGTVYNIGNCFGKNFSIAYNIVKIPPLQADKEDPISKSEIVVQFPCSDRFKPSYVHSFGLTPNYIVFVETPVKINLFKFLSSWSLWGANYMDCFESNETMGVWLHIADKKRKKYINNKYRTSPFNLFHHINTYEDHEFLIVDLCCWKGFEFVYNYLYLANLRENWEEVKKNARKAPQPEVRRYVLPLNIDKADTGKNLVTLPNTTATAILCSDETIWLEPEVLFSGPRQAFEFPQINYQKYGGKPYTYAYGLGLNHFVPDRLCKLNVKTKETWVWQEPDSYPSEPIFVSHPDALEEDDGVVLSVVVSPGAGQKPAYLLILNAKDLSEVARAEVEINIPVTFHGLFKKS", "assay": "Fluorescence binding of retinoids to purified sRPE65", "design": "species or system bovine", "conditions": "0.37 μM sRPE65, phosphate buffered saline pH 7.4, 1% CHAPS", "procedure": "(§1) Fluorescence binding assays: RPE65 in PBS, 1% CHAPS, pH 7.4 was used in the fluorometric titration studies. Protein concentrations were measured by a modified Lowry method (Lowry et al., 1951). All titrations were performed at 25° C. The samples in PBS buffer were excited at 280 nm and the fluorescence was scanned from 300 to 500 nm. Fluorescence measurements, using 450 μL quartz cuvettes with a 0.5 cm path length, were made at 25° C. on a Jobin Yvon Instruments, Fluoromax 2 employing the right-angle detection method.\nThe fluorescence of the protein solution was measured after equilibrating it at 25° C. for 10 min. […] In each titration, to a 250 μL solution of the protein an equal amount of retinoid, typically 0.2 μL. was added and thoroughly mixed before allowing it to equilibrate for 10 min prior to recording the fluorescence intensity. […] The binding constant (KD) was calculated from the fluorescence intensity by using the following equation (Gollapalli et al., 2003).\nAs mentioned above, membrane associated RPE65 (mRPE65) stereospecifically binds all-trans-retinyl palmitate. In this example, the binding of retinoids to sRPE65 is measured by the fluorescence methodology already described (Gollapalli, D. R., Maiti, P., Rando, R. R. (2003) RPE65 operates in the vertebrate visual cycle by stereospecifically binding all-trans-retinyl esters. Biochemistry 42, 11824-30). […]"}, "[1]": {"system": "11-cis-retinol biosynthesis (IMH activity) in retinal pigment epithelial membrane system", "assay": "Effect on 11-cis-retinol biosynthesis (IMH activity) in RPE membranes", "format": "biochemical, bovine", "procedure": "A control reaction mixture without any inhibitor was also incubated at room temperature for 15 min. At the end of the min incubation, all-trans-retinol [11-12-^3H2] (0.2 μM) was added to the reaction mixtures (100 mM Tris pH 8.0, […] of RPE protein, 0.2% BSA 100 μM of DPPC, 1 mM of DTT and 0.2 μM all-trans-retinol [11-12-^3H2]) and incubated at room temperature for 30 min. At the end of this 30 minutes of incubation, an aliquot of the reactions were quenched to verify the equal addition of all-trans-retinol [11,12-^3H2] and the effect of these inhibitors on LRAT. After this the control reaction mixture was incubated with atRA (60 & 6 μM), 13cRA (60 & 6 μM) or 4-HPR (60 & 6 μM) for 15 min. Now all the reaction mixtures were incubated with 30 μM of apo-rCRALBP (100 mM Tris pH 8.0, 7.7 μg of RPE protein, 0.2% BSA 100 μM of DPPC, 1 mM of DTT 30 μM apo-rCRALBP and 0.2 μM all-trans-retinol [11-12-^3H2]) at 37° C. for 30 minutes. At the end of this incubation period the 200 μL reaction mixture was quenched by the addition of 750 μL ice cold methanol after which 100 μL of 1M sodium chloride solution was added, and 500 μl hexane (containing butylated hydroxy toluene at 1 mg/mL) was added to effect extraction of the retinoids. The retinoids were analyzed as previously described (27). The amount of 11-cis-retinol formed was used as a measurement of IMH activity. All experiments were performed in triplicate and the average values of these measurements were used for analysis.\nA control reaction mixture without any inhibitor was also incubated at room temperature for 15 min. At the end of the min incubation, all-trans-retinol [11-12-^3H2] (0.2 μM) was added to the reaction mixtures (100 mM Tris pH 8.0, 76.7 μg of RPE protein, 0.2% BSA 100 μM of DPPC, 1 mM of DTT and 0.2 μM all-trans-retinol [11-12-^3H2]) and incubated at room temperature for 30 min. […] The retinoids were analyzed as previously described (27). […]"}, "RPE65": {"biological_target": "T2, RPE65 (Bos taurus, UniProt Q28175)", "T2 construct": "Frozen bovine eyecups devoid of retinas were purchased from W. L. Lawson Co; tissue W. L. Lawson Co; host or cells: bovine eyecups (retinal pigment epithelium)", "T2 sequence (Q28175 whole entry)": "as above", "assay": "Fluorescence binding assay of retinoids and analogs to purified RPE65", "design": "species or system bovine", "procedure": "Purification of mRPE65, sRPE65 and rHRPE65: Purification was performed as described before (Ma et al., 2001). The purities of these proteins were verified by silver staining or Coomassie staining and Western blot (1:4000 primary antibody-1 h at room temperature and 1:4000 secondary antibody-0.5 h at room temperature).\nas §1\n(§2) The fluorescence of the protein solution was measured after equilibrating it at 25° C. for 10 min. The sample was then titrated with a solution of retinoid dissolved in dimethyl sulfoxide. In each titration, to a 250 μL solution of the protein an equal amount of retinoid, typically 0.2 μL. was added and thoroughly mixed before allowing it to equilibrate for 10 min prior to recording the fluorescence intensity. […] The binding constant (KD) was calculated from the fluorescence intensity by using the following equation (Gollapalli et al., 2003).\nwhere P0=Total protein concentration,\nn=number of independent binding sites, R0=Total retixioid concentration at each addition, KD=dissociation constant, Fmax=Fluorescence intensity at saturation, and F0=Initial fluorescence intensity."}, "mouse RPE65": {"biological_target": "mouse RPE65", "assay": "Constants of affinity (Kds) for mouse RPE65", "format": "binding", "conditions": "read-out: Kd (constant of affinity) for mouse RPE65", "procedure": "as §1, §2\nThe constants of affinity (Kds) of several compounds for mouse RPE65 were determined. […] Thus, the potency of binding is a function of the ester chain length, i.e., the longer the chain length, the stronger the affinity for RPE65 is and the stronger the antagonist is."}, "tLRAT": {"biological_target": "T3, tLRAT (Homo sapiens, UniProt O95237)", "T3 construct": "This form of LRAT has the two N and C-terminal transmembrane domains of LRAT truncated; made in house", "T3 sequence (O95237 31-196 limits assumed)": "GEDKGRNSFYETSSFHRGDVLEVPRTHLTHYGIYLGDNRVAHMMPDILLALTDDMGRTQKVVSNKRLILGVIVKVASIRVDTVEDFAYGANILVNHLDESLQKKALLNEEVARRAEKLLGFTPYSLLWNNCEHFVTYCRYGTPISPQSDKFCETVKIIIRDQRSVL", "assay": "mRPE65 concentration-dependent esterification of vitamin A by tLRAT", "format": "biochemical", "procedure": "mRPE65 concentration-dependent esterification of vitamin A: The effect of mRPE65 concentration on the rates of all-trans-retinyl palmitate formation was determined by monitoring the tLRAT catalyzed formation of all-trans-retinyl palmitate from added [11,12-^3H2]-all-trans-retinol and mRPE65. It should be noted that all-trans-retinyl palmitate formed from mRPE65 and vitamin A was identified both by its mass spectroscopic and chromatographic properties. The reaction mixture (volume 0.1 mL) contains 100 mM Tris (pH 8.4), 5 μM of tLRAT 0.3% CHAPS, 1 mM dithiothreitol and 5 μM of all-trans-retinol [11,12-^3H2] and mRPE65 (0, 0.008, 0.02, 0.028, 0.04, 0.052, 0.06 and 0.08 μM) incubated for 10 min at room temperature. After 10 min the reaction was quenched with 500 μL methanol, 100 μL of water and 500 μL of hexane. The amount of all-trans-retinyl palmitate [11,12-^3H2] formed as determined by normal phase-HPLC and was used as a measure of activity. The kinetic parameters KM (Kapp) and N were calculated as described before (Segal 1993). Each experiment was done in triplicate, and the data points used are an average of these three points. […]\nIn these experiments, pure mRPE65 and vitamin A are incubated with LRAT and the resultant all-trans-retinyl palmitate is isolated by HPLC. […] Under the same conditions, no observable turnover of DPPC is measured (FIG. 11B)."}, "[2]": {"conditions": "purified RPE65, PBS, 1% CHAPS, pH 7.4, 25° C., N=4, read-out: average KD for binding to RPE65"}}, "note": "Like-named read-outs stand apart in the source and are kept apart here."}
{"molecule": "CC1=C(/C=C/C(C)=C/C=C/C(C)=C/CO)C(C)(C)CCC1", "note": "[all-trans-retinol, reference compound]", "values": [{"measurement": "Kd", "setting": "sRPE65", "result": "~65", "unit": "nM"}]}
{"molecule": "CC1=C(/C=C/C(C)=C/C=C/C(C)=C\\C(=O)O)C(C)(C)CCC1", "note": "[13-cis-retinoic acid]", "values": [{"measurement": "inhibition of 11-cis-retinol formation", "setting": "[1]; membranes pre-incubated with vitamin A before inhibitor, 60 μM, data not shown", "result": "not susceptible to inhibition"}]}
{"molecule": "CC1=C(/C=C/C(C)=C/C=C/C(C)=C/C(=O)Nc2ccc(O)cc2)C(C)(C)CCC1", "note": "[N-(4-hydroxyphenyl)retinamide, reference compound]", "values": [{"measurement": "inhibition of 11-cis-retinol formation", "setting": "[1]; membranes pre-incubated with the inhibitor before vitamin A (FIG. 8)", "result": "substantially weaker"}, {"measurement": "Kd", "setting": "RPE65; [2]", "result": "~3550", "unit": "nM"}]}
{"molecule": "CCCCCCCCCCCCCCCC(=O)OC/C=C(C)/C=C/C=C(C)/C=C/C1=C(C)CCCC1(C)C", "note": "[retinyl palmitate]", "values": [{"measurement": "Kd", "setting": "sRPE65", "result": "~1200", "unit": "nM"}, {"measurement": "Kd", "setting": "mouse RPE65", "result": 47, "unit": "nM"}, {"measurement": "Kd", "setting": "RPE65; antagonist of RPE65, read-out: KD", "result": 47, "unit": "nM"}, {"measurement": "Kd", "setting": "RPE65; [2]", "result": 47, "unit": "nM"}]}
{"molecule": "B1", "values": [{"measurement": "Km", "setting": "tLRAT; 5 μM tLRAT, 5 μM all-trans-retinol, sigmoidal kinetics, read-out: KM (Kapp) as palmitoyl donor", "result": 0.03, "unit": "µM"}, {"measurement": "N (Hill plot)", "setting": "tLRAT; tLRAT catalyzed palmitoyl transfer to vitamin A", "result": 2.54}]}
